Experimental findings from article PMC10434227 (Microbiology Spectrum, 2023) are described below.

Series [1] deals with MPXV USA-2003 (NR-2500) clade II. The series can be described thus: microbe, parasite or virus in culture. Format: cell-based, monkeypox virus (MPXV).
In series [2] the test system is A549 cells.
For series [3], the system named is A549 cells. The source holds these as a separate data set.
In series [4] the test system is rVACV Nluc/Scarlet. The series can be described thus: microbe, parasite or virus in culture. It counts as cell-based, vaccinia virus (VACV).
The subject of series [5] is rVACV Nluc/GFP. The series can be described thus: microbe, parasite or virus in culture. It counts as cell-based, vaccinia virus (VACV).
Series [6] in a line: in vitro. The conditions noted are these: human.
A short description of series [7]: in vitro. The conditions noted are these: human. This is another data set of the same source.
Series [8] concerns rVACV Nluc/Scarlet. It counts as cell-based, vaccinia virus (VACV).
For series [9], the system named is MPXV. It counts as cell-based, monkeypox virus (MPXV).
For series [10], the system named is rVACV Nluc/GFP. It counts as cell-based, vaccinia virus (VACV).
Where [11] appears, read: read-out: EC50 FP (Scarlet fluorescence).
[12] abbreviates: read-out: EC50 FP (GFP fluorescence).
[13] abbreviates: Monkeypox virus, A549, read-out: EC50 against MPXV.
[14] abbreviates: Orthopoxvirus vaccinia, A549, read-out: EC50 FP (Scarlet fluorescence).
Where [15] appears, read: Orthopoxvirus vaccinia, A549, read-out: EC50 Nluc.
The mark [16] stands for this setting: Orthopoxvirus vaccinia, A549, read-out: EC50 FP (GFP fluorescence).

Where a name gives a salt, the structure may show the parent alone. Read-outs that look alike come from different tables or passages of the source. Bounds are passed on as bounds.

For orientation: EC50 means the concentration giving half of the maximal effect. As to 2,2′-bi-1H-benzimidazole, in series [1], the “inhibitory activity against MPXV (in words)” value is listed as “did not inhibit MPXV infection”. Besides, the EC50 in series [1] (read-out: EC50 against MPXV), in series [4] (setting [11]), in series [4] (read-out: EC50 Nluc), in series [5] (setting [12]) and in series [5] (read-out: EC50 Nluc) was over 50000 nM throughout. Further, the CC50 in [2] and in series [3] was over 50000 nM in each case.

With “2′,3′,5′-triacetyl-6-azauridine [Azaribine]”, the CC50 in series [2] and in series [3] was over 150000 nM in each case. In addition, the EC50 came out at 1320 nM in series [4] (setting [11]), 1410 nM in [4] (read-out: EC50 Nluc), 1030 nM in [5] (setting [12]) and 1130 nM in series [5] (read-out: EC50 Nluc).

Consider `CC[C@H](CC#N)OC(=O)N[C@@H](C)c1cccc(NC(=O)Nc2ccc(-c3cnco3)c(OC)c2)c1` [AVN-944], for which the EC50 in series [1] (setting [13]) was found to be 170 nM; in [4] (setting [14]) it was 130 nM; in series [4] (setting [15]) it was 110 nM; in series [5] (setting [16]), 70 nM; in [5] (setting [15]), 70 nM. The CC50 in series [6] and in series [7] was over 50000 nM throughout.

For the compound `S=C(NCc1ccc2c(c1)OCO2)N1CCN(c2ncnc3c2oc2ccccc23)CC1` [Amuvatinib, amuvatinib], the EC50 in series [1] (setting [13]) came to 3470 nM; in series [4] (setting [14]), 4760 nM; in series [4] (setting [15]), 6830 nM; in series [4] (read-out: EC50 Nluc), 6630 nM; in series [5] (setting [16]) it was 3260 nM; in series [5] (setting [15]), 3890 nM.

Regarding `CCCCCC[C@H]1C(=O)O[C@H](C)[C@H](NC(=O)c2cccc(NC=O)c2O)C(=O)O[C@@H](C)[C@@H]1OC(=O)CC(C)C` [Antimycin A, antimycin A], the EC50 came to 10 nM in series [1] (setting [13]); 70 nM in series [4] (setting [14]); 90 nM in series [4] (setting [15]); 80 nM in series [5] (setting [16]); 130 nM in series [5] (setting [15]); 60 nM in series [5] (setting [12]). Moreover, the EC50 in series [5] (read-out: EC50 Nluc) turned out to be 120 nM.

`O=c1cnn([C@@H]2O[C@H](CO)[C@@H](O)[C@H]2O)c(=O)[nH]1` [Azauridine, 6-azauridine]: the EC50 in [1] (setting [13]) was 2390 nM; in [4] (setting [14]), 840 nM; in series [4] (setting [15]) it was 1510 nM; in series [4] (setting [11]), 640 nM; in [5] (setting [16]), 1740 nM; in series [5] (setting [15]) it was 1590 nM. Further, in [5] (read-out: EC50 Nluc), the EC50 amounted to 1580 nM. Besides, the CC50 in series [6] and in [7] was over 50000 nM in each case.

As to `CO/C=C(/C(=O)OC)c1ccccc1Oc1cc(Oc2ccccc2C#N)ncn1` [Azoxystrobin, azoxystrobin], the EC50 came to 10800 nM in series [1] (read-out: EC50 against MPXV); 7920 nM in [4] (setting [11]); 6100 nM in series [4] (read-out: EC50 Nluc); 7850 nM in series [5] (setting [12]); 6120 nM in series [5] (read-out: EC50 Nluc). Further, the CC50 was over 450000 nM in series [2] and 27900 nM in series [3].

`Cc1c(-c2ccc(-c3ccccc3F)cc2)nc2ccc(F)cc2c1C(=O)O` [Brequinar, brequinar sodium salt hydrate]: the EC50 is 160 nM in series [1] (setting [13]); 120 nM in series [4] (setting [14]); 110 nM in series [4] (setting [15]); 180 nM in series [5] (setting [16]); under 40 nM in [5] (setting [15]); 40 nM in series [5] (read-out: EC50 Nluc). Further, the CC50 in series [6] and in series [7] was over 50000 nM each time.

With `CC(C)(C)[C@H]1CC[C@H](CC2=C(O)C(=O)c3ccccc3C2=O)CC1` [Buparvaquone, buparvaquone], the EC50 is 7220 nM in series [1] (setting [13]); 1760 nM in [4] (setting [14]); 1120 nM in [4] (setting [15]); 1850 nM in series [5] (setting [16]); 1070 nM in [5] (setting [15]); 1950 nM in [5] (setting [12]).

Regarding `CC[C@@]1([C@@H]2O[C@@H]([C@H]3O[C@@](O)(CO)[C@H](C)C[C@@H]3C)C[C@@H]2C)CC[C@H]([C@]2(C)CC[C@]3(C[C@H](O)[C@@H](C)[C@@H]([C@@H](C)[C@@H](OC)[C@H](C)C(=O)O)O3)O2)O1` [Monensin, monensin sodium salt], the EC50 in series [1] (setting [13]) worked out at 50 nM; in series [4] (setting [14]), 70 nM; in series [4] (setting [15]) it was 80 nM; in [5] (setting [16]), 80 nM; in series [5] (setting [15]) it was 130 nM. In addition, the CC50 in [6] and in [7] was over 50000 nM each time.

As for `FC(F)(F)c1ccc(/C=C/c2nc(COc3ccc(CCCCn4ccnn4)cc3)co2)cc1` [Mubritinib, mubritinib], the EC50 was 38 nM in series [1] (setting [13]); 50 nM in series [4] (setting [14]); 37 nM in series [4] (setting [15]); 93 nM in series [4] (setting [11]); 65 nM in [5] (setting [16]); 33 nM in [5] (setting [15]).

Turning to `COc1c(C)c2c(c(O)c1C/C=C(\C)CCC(=O)OCCN1CCOCC1)C(=O)OC2` [Mycophenolate mofetil, mycophenolate mofetil], the EC50 in [1] (setting [13]) was determined as 1060 nM; in series [1] (read-out: EC50 against MPXV) it was 1960 nM; in series [4] (setting [14]) it was 1200 nM; in series [4] (setting [15]) it was 1040 nM; in series [5] (setting [16]), 870 nM; in [5] (setting [15]), 800 nM. For the same compound, the EC50 in [5] (read-out: EC50 Nluc) turned out to be 930 nM. In addition, the CC50 in series [6] and in [7] was over 150000 nM throughout.

Consider `COc1c(C)c2c(c(O)c1C/C=C(\C)CCC(=O)O)C(=O)OC2` [Mycophenolic acid, mycophenolic acid], for which the EC50 was 710 nM in series [1] (setting [13]); 460 nM in series [4] (setting [14]); 490 nM in series [4] (setting [15]); 590 nM in [5] (setting [16]); 430 nM in series [5] (setting [15]). Further, the CC50 in [6] and in [7] was over 150000 nM each time.

Turning to `CC[C@@H](C(=O)O)[C@@H]1O[C@@H]([C@@H](C)[C@H](O)[C@H](C)C(=O)[C@H](CC)[C@H]2O[C@]3(C=C[C@@H](O)[C@]4(CC[C@@](C)([C@H]5CC[C@](O)(CC)[C@H](C)O5)O4)O3)[C@H](C)C[C@@H]2C)[C@@H](C)C[C@@H]1C` [Narasin, narasin sodium salt], the EC50 in series [1] (setting [13]) is 50 nM; in [4] (setting [14]), 20 nM; in [4] (setting [15]), 20 nM; in series [5] (setting [16]) it was 10 nM; in series [5] (setting [15]) it was 30 nM.

In the case of `NCC(=O)Nc1ccc(-n2nc(C(F)(F)F)cc2-c2ccc3c(ccc4ccccc43)c2)cc1` [Osu-03012, OSU-03012], the EC50 in series [1] (setting [13]) amounted to 4390 nM; in series [4] (setting [14]), 2320 nM; in [4] (setting [15]), 2590 nM; in series [5] (setting [16]), 3290 nM; in series [5] (setting [15]), 2950 nM; in series [5] (read-out: EC50 Nluc), 2650 nM.

Take `NC(=O)c1[nH]nc([C@@H]2O[C@H](CO)[C@@H](O)[C@H]2O)c1O` [Pyrazofurin, pyrazofurin]: the EC50 in [1] (setting [13]) was 3400 nM; in series [4] (setting [14]), 370 nM; in [4] (setting [15]), 110 nM; in [4] (setting [11]) it was 270 nM; in [5] (setting [16]), 530 nM; in series [5] (setting [15]), 240 nM. Further, the CC50 in [6] and in series [7] was over 50000 nM throughout.

As for `C=C(C)[C@H]1Cc2c(ccc3c2O[C@@H]2COc4cc(OC)c(OC)cc4[C@@H]2C3=O)O1` [Rotenone, rotenone], the EC50 in [1] (setting [13]) was 7 nM; in series [4] (setting [14]) it was 15 nM; in [4] (setting [15]), 8 nM; in [5] (setting [16]), 10 nM; in series [5] (setting [15]), 7 nM.

Regarding `Fc1ccc(CNc2ncnc3ccc(F)cc23)cc1` [Spautin-1, spautin-1], the EC50 amounted to 3210 nM in series [1] (read-out: EC50 against MPXV); 6780 nM in series [4] (setting [11]); 3040 nM in series [4] (read-out: EC50 Nluc); 4430 nM in [5] (setting [12]); 2800 nM in series [5] (read-out: EC50 Nluc). In addition, the CC50 in series [2] was over 50000 nM; in [3] it was 8000 nM.

Regarding `O=C(NN1C(=O)[C@@H]2[C@@H]3C=C[C@@H]([C@H]4C[C@@H]34)[C@@H]2C1=O)c1ccc(C(F)(F)F)cc1` [Tecovirimat, tecovirimat], the “inhibitory activity against MPXV (in words)” value in [1] was “potently inhibited MPXV”. For the same compound, the EC50 in [1] (setting [13]) came out at 120 nM; in series [1] (read-out: EC50 against MPXV), 150 nM; in [4] (setting [15]), 80 nM; in [4] (read-out: EC50 Nluc), 70 nM. The extracellular viral titers entry in series [8], in series [9] and in series [10] was “dose-dependent decrease” in each case. The CC50 in series [6] and in [7] was over 50000 nM throughout.

Turning to `O=C1c2ccccc2-n2c1nc1ccccc1c2=O` [Tryptanthrin, tryptanthrin], the EC50 in series [1] (setting [13]) was 4790 nM; in series [1] (read-out: EC50 against MPXV), 4780 nM; in series [4] (setting [14]), 1390 nM; in [4] (setting [15]), 870 nM; in series [4] (setting [11]), 1380 nM; in [4] (read-out: EC50 Nluc), 970 nM. The EC50 in series [5] (setting [16]) stood at 1340 nM; in series [5] (setting [15]), 810 nM.

Take `CC(C)[C@@H]1NC(=O)[C@H](C)OC(=O)[C@@H](C(C)C)NC(=O)[C@@H](C(C)C)OC(=O)[C@H](C(C)C)NC(=O)[C@H](C)OC(=O)[C@@H](C(C)C)NC(=O)[C@@H](C(C)C)OC(=O)[C@H](C(C)C)NC(=O)[C@H](C)OC(=O)[C@@H](C(C)C)NC(=O)[C@@H](C(C)C)OC1=O` [Valinomycin, valinomycin]: the EC50 in series [1] (setting [13]) stood at 1 nM; in series [4] (setting [14]), 3 nM; in series [4] (setting [15]), 2 nM; in series [5] (setting [16]), 3 nM; in series [5] (setting [15]), 2 nM.
